Measurements taken from patent US20240132431A1, “METHOD FOR ALKYLATING ACIDIC FUNCTIONAL GROUP” (Chugai Seiyaku Kabushiki Kaisha, priority 2021, published 2024).

Target: T1, Bcl-2 protein (Recombinant Human Bcl-2 Protein) (Homo sapiens, UniProt P10415)
T1 construct: purchased Novus NBP2-34889
Test: Binding evaluation of mixture library compounds to Bcl-2 using AS-MS (affinity selection mass spectrometry)
Details: for ASMS ratio (%) n = 1 / ASMS ratio (%) n = 2: ASMS Ratio(%)=(A−C)/B×100; for ASMS ratio (%) n = 1: replicate n = 1; for ASMS ratio (%) n = 2: replicate n = 2
How it was run: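 Pooled library of ~1200 compounds ([…] each, final) incubated with recombinant human Bcl-2 (20 μM final) in Tris-HCl pH 7.4, NaCl, Tween-20, DTT buffer, dark, 23° C., 1 h. Bound fraction recovered by SEC spin column, organic extraction, reversed-phase LC/MS. ASMS Ratio (%) = (A−C)/B×100 versus protein-free standard and SEC blank.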

[1] = AS-MS, mixture of 1200 compounds, Bcl-2
[2] = AS-MS on the mixture of 1200 library compounds

T1 sequence (P10415 whole entry): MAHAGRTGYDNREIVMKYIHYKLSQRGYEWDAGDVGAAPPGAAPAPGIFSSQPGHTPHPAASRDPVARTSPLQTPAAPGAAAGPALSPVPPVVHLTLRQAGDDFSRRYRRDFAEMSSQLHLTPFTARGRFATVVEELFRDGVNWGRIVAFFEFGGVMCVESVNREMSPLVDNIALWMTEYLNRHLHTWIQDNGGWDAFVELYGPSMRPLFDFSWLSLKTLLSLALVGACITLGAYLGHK

Molecule	ASMS ratio (%) n = 1 [2] [%]	ASMS ratio (%) n = 2 [2] [%]	ASMS ratio (%) n = 1 [1] [%]	ASMS ratio (%) n = 2 [1] [%]	further results
CCOc1cncc(-c2csc(CN3CCN(c4ccc(C(=O)NCC(F)(F)F)nn4)CC3)c2)c1 [B1K094-01, 6-[4-[[4-(5-Ethoxypyridin-3-yl)thiophen-2-yl]methyl]piperazin-1-yl]-N-(2,2,2-trifluoroethyl)pyridazine-3-carboxamide]			1.4	−0.1	
CCOc1cncc(C#Cc2ccccc2CN2CCN(c3ccc(C(=O)N(C)CC45CC6CC(CC(C6)C4)C5)cc3)CC2)c1 [B3A070-01, N-(1-Adamantylmethyl)-4-[4-[[2-[2-(5-ethoxypyridin-3-yl)ethynyl]phenyl]methyl]piperazin-1-yl]-N-methylbenzamide]	7.7	−8.1			
CCOc1cccc(-c2cc(OC)c(CN3CCN(c4ccc(C(=O)NS(=O)(=O)C(C)(C)C)cc4)CC3)c(OC)c2)c1 [B2L059-01, N-tert-Butylsulfonyl-4-[4-[[4-(3-ethoxyphenyl)-2,6-dimethoxyphenyl]methyl]piperazin-1-yl]benzamide]					ASMS ratio (%) (n = 1): 0.0%; ASMS ratio (%) (n = 2): 0.0%
CCOc1cncc(-c2ccc(CN3CCN(c4ccc(C(=O)NS(C)(=O)=O)nn4)CC3)c3ccccc23)c1 [B2I092-01, 6-[4-[[4-(5-Ethoxypyridin-3-yl)naphthalen-1-yl]methyl]piperazin-1-yl]-N-methylsulfonylpyridazine-3-carboxamide]					ASMS ratio (%) (n = 1): 2.6%; ASMS ratio (%) (n = 2): 0.3%
CCOc1cccc(C#Cc2cncc(C(=O)N3CCN(c4ccc(C(=O)NCC(F)(F)F)cc4)CC3)c2)c1 [B1K031-01, 4-[4-[5-[2-(3-Ethoxyphenyl)ethynyl]pyridine-3-carbonyl]piperazin-1-yl]-N-(2,2,2-trifluoroethyl)benzamide]			0.0	0.0	
4-[4-[[3-(5-Ethoxypyridin-3-yl)-5-propan-2-yloxyphenyl]methyl]piperazin-1-yl]-N-propylbenzamide [B1M017-01]			−0.1	0.3	
CCOc1cncc(-c2ccc(CN3CCN(c4ccc(C(=O)NS(=O)(=O)c5ccc(NCCSc6ccccc6)c([N+](=O)[O-])c5)cc4)CC3)c(CC)c2)c1 [B2Q050-01, 4-[4-[[4-(5-Ethoxypyridin-3-yl)-2-ethylphenyl]methyl]piperazin-1-yl]-N-[3-nitro-4-(2-phenylsulfanylethylamino)phenyl]sulfonylbenzamide]					ASMS ratio (%) n = 1 (AS-MS, mixture library, Bcl-2): 0.0%; ASMS ratio (%) n = 2 (AS-MS, mixture library, Bcl-2): 0.0%
CCOc1cccc(-c2ccc(C(=O)N3CCN(c4ccc(C(=O)N(C)CC56CC7CC(CC(C7)C5)C6)nn4)CC3)cc2F)c1 [B3A005-01, N-(1-Adamantylmethyl)-6-[4-[4-(3-ethoxyphenyl)-3-fluorobenzoyl]piperazin-1-yl]-N-methylpyridazine-3-carboxamide]	−1.5	−4.8			
CCOc1cccc(-c2ccc(CN3CCN(c4ccc(C(=O)NS(=O)(=O)c5ccc(NCCSc6ccccc6)c(C(F)(F)F)c5)nn4)CC3)c3ccccc23)c1 [B2R091-01, 6-[4-[[4-(3-Ethoxyphenyl)naphthalen-1-yl]methyl]piperazin-1-yl]-N-[4-(2-phenylsulfanylethylamino)-3-(trifluoromethyl)phenyl]sulfonylpyridazine-3-carboxamide]					ASMS ratio (%) (n = 1): −3.5%; ASMS ratio (%) (n = 2): 1.8%
CCOc1cccc(-c2ccc(CN3CCN(c4ccc(C(=O)N(C)CC56CC7CC(CC(C7)C5)C6)nn4)CC3)cc2F)c1 [B3A077-01, N-(1-Adamantylmethyl)-6-[4-[[4-(3-ethoxyphenyl)-3-fluorophenyl]methyl]piperazin-1-yl]-N-methylpyridazine-3-carboxamide]	4.1	−2.8			
CCOc1cncc(C#Cc2cc(C(=O)N3CCN(c4ccc(C(=O)NS(=O)(=O)CCC(F)(F)F)cc4)CC3)cc(C(F)(F)F)c2)c1 [B2N042-01, 4-[4-[3-[2-(5-Ethoxypyridin-3-yl)ethynyl]-5-(trifluoromethyl)benzoyl]piperazin-1-yl]-N-(3,3,3-trifluoropropylsulfonyl)benzamide]					ASMS ratio (%) (n = 1): 0.0%; ASMS ratio (%) (n = 2): 0.0%
4-[4-[4-(3-Ethoxyphenyl)naphthalene-1-carbonyl]piperazin-1-yl]-N-propylbenzamide [B1M073-01]			0.4	−0.5	
CCOc1cccc(-c2ccc(C(=O)N3CCN(c4ccc(C(=O)NS(=O)(=O)c5ccc(NCCSc6ccccc6)c([N+](=O)[O-])c5)nn4)CC3)c3ccccc23)c1 [B2Q013-01, 6-[4-[4-(3-Ethoxyphenyl)naphthalene-1-carbonyl]piperazin-1-yl]-N-[3-nitro-4-(2-phenylsulfanylethylamino)phenyl]sulfonylpyridazine-3-carboxamide]					ASMS ratio (%) n = 1 (AS-MS, mixture library, Bcl-2): 0.0%; ASMS ratio (%) n = 2 (AS-MS, mixture library, Bcl-2): 0.0%
CCOc1cccc(-c2ccc(C(C)N3CCN(c4ccc(C(=O)NS(=O)(=O)CC56CC7CC(CC(C7)C5)C6)cc4)CC3)cc2)c1 (stereo not shown) [B2A097-01, N-(1-Adamantylmethylsulfonyl)-4-[4-[1-[4-(3-ethoxyphenyl)phenyl]ethyl]piperazin-1-yl]benzamide]					ASMS ratio (%) n = 1 (AS-MS, mixture library, Bcl-2): 9.7%; ASMS ratio (%) n = 2 (AS-MS, mixture library, Bcl-2): 0.4%
CCOc1cncc(-c2cc(CN3CCN(c4ccc(C(=O)Nc5ccc(OC)cc5)nn4)CC3)cc(OCC)c2)c1 [B1O082-01, 6-[4-[[3-Ethoxy-5-(5-ethoxypyridin-3-yl)phenyl]methyl]piperazin-1-yl]-N-(4-methoxyphenyl)pyridazine-3-carboxamide]	1.5	2.6			
CCOc1cccc(-c2ccc(C(=O)N3CCN(c4ccc(C(=O)NS(=O)(=O)CC56CC7CC(CC(C7)C5)C6)nn4)CC3)c3ccccc23)c1 [B2A013-01, N-(1-Adamantylmethylsulfonyl)-6-[4-[4-(3-ethoxyphenyl)naphthalene-1-carbonyl]piperazin-1-yl]pyridazine-3-carboxamide]					ASMS ratio (%) n = 1 (AS-MS, mixture library, Bcl-2): 11.6%; ASMS ratio (%) n = 2 (AS-MS, mixture library, Bcl-2): 17.8%
6-[4-[3-[2-(5-Ethoxypyridin-3-yl)ethynyl]-5-(trifluoromethyl)benzoyl]piperazin-1-yl]-N-propylpyridazine-3-carboxamide [B1M018-01]			0.0	0.0	
CCOc1cncc(C#Cc2ccccc2C(=O)N2CCN(c3ccc(C(=O)NCC(F)(F)F)nn3)CC2)c1 [B1K008-01, 6-[4-[2-[2-(5-Ethoxypyridin-3-yl)ethynyl]benzoyl]piperazin-1-yl]-N-(2,2,2-trifluoroethyl)pyridazine-3-carboxamide]			0.0	0.0	

Further lines, with some results ahead:

ASMS ratio (%) n = 1 [2] [%]	ASMS ratio (%) n = 2 [2] [%]	Molecule	ASMS ratio (%) n = 1 [1] [%]	ASMS ratio (%) n = 2 [1] [%]	further results
3.9	−1.9	CCOc1cccc(-c2ccc(CN3CCN(c4ccc(C(=O)Nc5ccc(OC)cc5)cc4)CC3)cc2F)c1 [B1O051-01, 4-[4-[[4-(3-Ethoxyphenyl)-3-fluorophenyl]methyl]piperazin-1-yl]-N-(4-methoxyphenyl)benzamide]			
0.5	−1.5	CCCNC(=O)c1ccc(N2CCN(Cc3ccc(-c4cncc(OCC)c4)cc3OC)CC2)nn1 [B1M100-01, 6-[4-[[4-(5-Ethoxypyridin-3-yl)-2-methoxyphenyl]methyl]piperazin-1-yl]-N-propylpyridazine-3-carboxamide]			
